# Residues, ends and D or L forms follow the SMILES beside them. *: point of attachment. Cbz = O=C(OCc1ccccc1)*
# Key:
# Cavα1 = assay: Western blot of YFP-Cavα1 in transfected COS-7 cells treated with Akt inhibitor and degradation-system inhibitors; assay type: cell-based
# Experimental: FIG. 3. Akt mediates regulation of Cavα1 protein density at the plasma membrane. (A) RT-PCR analysis of Cavα1 mRNA expression from WT and KO ventricular extracts. GADPH serves as loading control. (B) Western blot analysis of whole lysate, membrane, and microsomal fractions from WT and KO ventricular extracts. (C) YFP-Cavα1 transfected COS-7 cells alone or in combination with Cavβ2-expression vector were serum-starved and treated with Akt inhibitor and 1 μM bafilomycin-A1, 25 μM MG132, or 25 μM calpeptin. 6 h post drug administration, cell lysates were prepared and subjected to Western blot analysis for YFP. GAPDH served as a loading control. (D-E) Cavα1 protein levels in KO cardiomyocytes infected with empty (mock) or active E40K-Akt (AdAkt) expressing adenoviral vector (D) and in whole lysates of WT and E40K-Akt (Tg Akt) hearts (E). Representative experiments are shown (n=4).
# However, since the amount of Cavα1 was reduced in both microsomal and membrane fractions from KO extracts compared to WT (FIG. 3B), we hypothesized that the reduced Cavα1 level observed in KO mice was due to enhanced protein degradation in addition to impaired protein translocation to the plasma membrane. To assess the pathway involved in the Akt-dependent Cavα1 protein degradation, three sets of specific cell degradation system inhibitors were examined for their ability to prevent the decrease in Cavα1 protein elicited by Akt inhibition. […] Similar results were obtained by inhibiting calpain, the intracellular, Ca^2+-dependent cysteine protease known to be involved in membrane protein degradation (Belles et al., 1988; Romanin et al., 1991).
# Cell transfection was performed in serum-starved medium using LipoFectamine2000 (Invitrogen) according to the manufacturer's instructions. 5 μM Akt-XI inhibitor (Calbiochem), insulin (Sigma), 1 μM bafilomycin-A 1 (Sigma), 25 μM MG132 (Calbiochem), and 25 μM Calpeptin (Calbiochem) were used as described. […]
# Proteins expression was evaluated in total lysates or cell fractions by Western blot analysis according to standard procedures. […]
# Cavα1 C-terminal domain = assay: GST pull-down in vitro binding assay; conditions: for Interaction with Cavα1 C-terminal domain: 35S-methionine-labeled C-Cavα1 (aa 1477-2169)
# Description: FIG. 7. Rapid-protein-degradation PEST sequences determine Cavα1 protein instability. (A) Schematic representation of Cavα1 mapping the α1-interacting domain (AID) and PEST sequences in the I-II and II-III cytosolic loops. Deleted PEST sequences (P, H) are highlighted in red. (B) Western blot and immunofluorescence analyses showing relative levels of WT and PEST deleted mutants of YFP-Cavα1 (n=3). Bar represents 5 μm. (C) Wild-type Cavα1 subunit (alone or cotransfected with Cavβ2SE) and its in-frame ΔPEST mutants (Cavα1-ΔP and Cavα1-ΔH) half-lives were determined in COST cells. After overnight starvation, transfected cells were pulse-chased and analyzed along a time course (*P<0.001 compared to Cavα1, ANOVA; n=3). (D) Western blot and immunofluorescence analyses showing relative levels of WT GFP and N-terminal fusion PEST mutants (n=3). Bar represents 20 μm. (E) The Cavα1 C-terminus interacts with the Akt-phosphorylated-GST-Cavβ2 coiled coil region. Bacterially expressed GST or GST-C-Cavβ2 (Cavβ2: aa 480-655) fusion protein and glutathione sepharose beads were incubated with equal amounts of in vitro translated [^35S] methionine-labeled C-Cavα1 (Cavα1: aa 1477-2169). […] Bound proteins were resolved by SDS-PAGE (4-12%). 10% of the input protein in each binding reaction is shown. Coomassie staining of SDS-PAGE is shown in the bottom panel. (F) Ca^2+ currents recorded in tsA-201 cells cotransfected with Cavβ2-WT and either Cavα1-WT or Cavα1-ΔH and cultivated for 36 h in the presence or absence of fetal bovine serum (10%). Current densities (pA/pF) are normalized to the control condition. n>35 at each condition, (*P<0.05 compared to Cavα1, ANOVA). […]
# Affinity-purified GST-fusion proteins were generated using a pGEX system (Amersham) and phosphorylated as described below. […] Bound proteins were eluted in SDS sample buffer, subjected to SDS-PAGE, and detected by autoradiography. […]
# Cavα1 currents = assay: Whole-cell patch clamp Ca2+ current (ICa,L) in cotransfected tsA-201 cells with or without serum; assay type: cell-based; conditions: cotransfection with Cavα1; 36 h
# Experimental: FIG. 6. Akt phosphorylation of Cavβ2 preserves Cavα1 currents. Ca^2+ currents recorded in cotransfected tsA-201 cells with YFP-Cavα1 and either Cavβ2-WT, Cavβ2-SE, or Cavβ2-SA mutant, cultivated for 36 h in the presence or absence of fetal bovine serum (10%). Currents were recorded 1-2 minutes after the whole-cell configuration was achieved (i.e. after stabilization of the current) and were elicited by a 0 mV depolarization of 200 ms duration applied from a holding potential of −80 mV. Currents are normalized to cell capacitance (Current density, pA/pF). Representative current traces are shown. n>35 at each condition, (*P<0.05 compared to YFP-Cavα1, ANOVA).
# FIG. 7. […] (C) Wild-type Cavα1 subunit (alone or cotransfected with Cavβ2SE) and its in-frame ΔPEST mutants (Cavα1-ΔP and Cavα1-ΔH) half-lives were determined in COST cells. After overnight starvation, transfected cells were pulse-chased and analyzed along a time course (*P<0.001 compared to Cavα1, ANOVA; n=3). […] (F) Ca^2+ currents recorded in tsA-201 cells cotransfected with Cavβ2-WT and either Cavα1-WT or Cavα1-ΔH and cultivated for 36 h in the presence or absence of fetal bovine serum (10%). […]
# Macroscopic Ice, was recorded at room temperature (˜22° C.) using the whole-cell patch clamp technique in native cells as previously described (Aimond et al., 2005; Maier et al., 2003). […]
# [1] = Cavα1 and Cavβ2 cotransfected cells, 1 μM bafilomycin-A1, 25 μM MG132 or 25 μM calpeptin, 6 h
compound,measurement,setting,value
CC(C)C[C@@H](C=O)NC(=O)[C@H](CC(C)C)NC(=O)[C@H](CC(C)C)NC(=O)OCc1ccccc1 [MG132] (Cbz-Leu-Leu-Leu-aldehyde),Cavα1 protein decrease induced by Akt inhibition,Cavα1; [1],failed to protect Cavα1 from protein degradation
CO/C1=C\C(C)=C\[C@@H](C)[C@@H](O)[C@@H](C)C/C(C)=C/C=C/[C@H](OC)[C@@H]([C@@H](C)[C@@H](O)[C@H](C)[C@@]2(O)C[C@@H](O)[C@H](C)[C@@H](C(C)C)O2)OC1=O [bafilomycin-A1],Cavα1 protein decrease induced by Akt inhibition,Cavα1; [1],prevented the decrease in Cavα1 protein induced by Akt inhibition
same,Cavα1 protein decrease induced by Akt inhibition,Cavα1; absence of Cavβ2 cotransfection,protection effect was abolished
Akt-phosphorylated Cavβ2 C-terminal coiled coil region: bacterially expressed GST-C-Cavβ2 (Cavβ2: aa 480-655) fusion protein phosphorylated by recombinant Akt,Interaction with Cavα1 C-terminal domain,Cavα1 C-terminal domain,direct interaction took place
same,Interaction with Cavα1 C-terminal domain,Cavα1 C-terminal domain; listed as Akt-phosphorylated GST-C-Cavβ2,Binding occurred
same,Interaction with other Cavα1 cytosolic domains,Cavα1 C-terminal domain; data not shown,No interactions were found
Cavβ2-WT: wild-type Ca2+ beta2 channel accessory subunit,"ICa,L in serum-free medium compared to serum-containing medium",Cavα1 currents,"significant depressed ICa,L"

# From patent US20120070451A1, “METHODS AND COMPOSITIONS FOR MODULATING CARDIAC CONTRACTILITY” (Consiglio Nazionale Delle Ricerche, priority 2009, published 2012)
